Data from ChEMBL document CHEMBL3885881, “DrugMatrix”.

Species on record: Rattus norvegicus
Test: DrugMatrix - Regimen: Daily Repeat
Assay type: toxicity, organism-based, Sprague-Dawley
Parameters: regimen Daily Repeat, gender Male, age 6-8 weeks
Conditions: in vivo, po, route oral GAVAGE, […]; for ABSOLUTE BASOPHIL / ABSOLUTE EOSINOPHIL / ABSOLUTE LYMPHOCYTE / ABSOLUTE MONOCYTE / ABSOLUTE SEGMENTED NEUTROPHIL / BASOPHIL / EOSINOPHIL / ERYTHROCYTE COUNT / HEMATOCRIT / HEMOGLOBIN / LEUKOCYTE COUNT / LYMPHOCYTE / MEAN CORPUSCULAR HEMOGLOBIN / MEAN CORPUSCULAR HEMOGLOBIN CONCENTRATION / MEAN CORPUSCULAR VOLUME / MONOCYTE / NEUTROPHIL / NUCLEATED RED BLOOD CELLS / PLATELET COUNT: tissue Blood; for ALANINE AMINOTRANSFERASE / ALBUMIN / ALKALINE PHOSPHATASE / ASPARTATE AMINOTRANSFERASE / BLOOD UREA NITROGEN / CARBON DIOXIDE / CHLORIDE / CHOLESTEROL / CREATINE PHOSPHOKINASE / CREATININE / GLUCOSE / LACTATE DEHYDROGENASE / LIPASE / PHOSPHORUS / POTASSIUM / SODIUM / TOTAL BILIRUBIN / TOTAL PROTEIN / URIC ACID: tissue Plasma
[1] = 18 mg/kg, 72 h, dose level High, time 3 day
[2] = 18 mg/kg, 120 h, dose level High, time 5 day
[3] = 72 h, dose 0.28 mg/Kg, dose level Low, time 3 day
[4] = 120 h, dose 0.28 mg/Kg, dose level Low, time 5 day

## CC(C(=O)O)c1ccc(CC2CCCC2=O)cc1 (configuration not stated) [LOXOPROFEN]
[1]
  ABSOLUTE BASOPHIL: 0 CELLS/uL
  ABSOLUTE EOSINOPHIL: 0 CELLS/uL
  ABSOLUTE LYMPHOCYTE: 12885.33 CELLS/uL
  ABSOLUTE MONOCYTE: 42.67 CELLS/uL
  ABSOLUTE SEGMENTED NEUTROPHIL: 1338.67 CELLS/uL
  BASOPHIL: 0%
  EOSINOPHIL: 0%
  ERYTHROCYTE COUNT: 5.2 x10E6/uL
  HEMATOCRIT: 32.2%
  HEMOGLOBIN: 13.03 G/DL
  LEUKOCYTE COUNT: 14.27 x10E3/uL
  LYMPHOCYTE: 90.67%
  MEAN CORPUSCULAR HEMOGLOBIN: 25.1 pg
  MEAN CORPUSCULAR HEMOGLOBIN CONCENTRATION: 40.53 G/DL
  MEAN CORPUSCULAR VOLUME: 61.93 fL
  MONOCYTE: 0.33%
  NEUTROPHIL: 9%
  NUCLEATED RED BLOOD CELLS: 0 /100WBC
  PLATELET COUNT: 1130.33 x10E3/uL
  ALANINE AMINOTRANSFERASE: 76.67 u/L
  ALBUMIN: 4.03 G/DL
  ALKALINE PHOSPHATASE: 346.33 u/L
  ASPARTATE AMINOTRANSFERASE: 93 u/L
  BLOOD UREA NITROGEN: 15.67 mg/dL
  CARBON DIOXIDE: 30.33 mmol/L
  CHLORIDE: 102.33 MEQ/L
  CHOLESTEROL: 83 mg/dL
  CREATINE PHOSPHOKINASE: 423.33 u/L
  CREATININE: 0.36 mg/dL
  GLUCOSE: 148.67 mg/dL
  LACTATE DEHYDROGENASE: 236.33 u/L
  LIPASE: 13 u/L
  PHOSPHORUS: 11.07 mg/dL
  POTASSIUM: 6.41 MEQ/L
  SODIUM: 143.6 MEQ/L
  TOTAL BILIRUBIN: 0.27 mg/dL
  TOTAL PROTEIN: 5.63 G/DL
  URIC ACID: 1.1 mg/dL
[2]
  ABSOLUTE BASOPHIL: 0 CELLS/uL
  ABSOLUTE EOSINOPHIL: 118 CELLS/uL
  ABSOLUTE LYMPHOCYTE: 14441.67 CELLS/uL
  ABSOLUTE MONOCYTE: 168.67 CELLS/uL
  ABSOLUTE SEGMENTED NEUTROPHIL: 1438.33 CELLS/uL
  BASOPHIL: 0%
  EOSINOPHIL: 1%
  ERYTHROCYTE COUNT: 5.58 x10E6/uL
  HEMATOCRIT: 34.33%
  HEMOGLOBIN: 13.8 G/DL
  LEUKOCYTE COUNT: 16.17 x10E3/uL
  LYMPHOCYTE: 90%
  MEAN CORPUSCULAR HEMOGLOBIN: 24.77 pg
  MEAN CORPUSCULAR HEMOGLOBIN CONCENTRATION: 40.2 G/DL
  MEAN CORPUSCULAR VOLUME: 61.53 fL
  MONOCYTE: 1%
  NEUTROPHIL: 8%
  NUCLEATED RED BLOOD CELLS: 0 /100WBC
  PLATELET COUNT: 1237 x10E3/uL
  ALANINE AMINOTRANSFERASE: 60.67 u/L
  ALBUMIN: 4.13 G/DL
  ALKALINE PHOSPHATASE: 356.33 u/L
  ASPARTATE AMINOTRANSFERASE: 101 u/L
  BLOOD UREA NITROGEN: 17 mg/dL
  CARBON DIOXIDE: 27.67 mmol/L
  CHLORIDE: 103.33 MEQ/L
  CHOLESTEROL: 67.67 mg/dL
  CREATINE PHOSPHOKINASE: 434 u/L
  CREATININE: 0.18 mg/dL
  GLUCOSE: 141 mg/dL
  LACTATE DEHYDROGENASE: 660 u/L
  LIPASE: 10.67 u/L
  PHOSPHORUS: 11.17 mg/dL
  POTASSIUM: 5.74 MEQ/L
  SODIUM: 144.53 MEQ/L
  TOTAL BILIRUBIN: 0.23 mg/dL
  TOTAL PROTEIN: 5.77 G/DL
  URIC ACID: 1.33 mg/dL
[3]
  ABSOLUTE BASOPHIL: 0 CELLS/uL
  ABSOLUTE EOSINOPHIL: 0 CELLS/uL
  ABSOLUTE LYMPHOCYTE: 8216 CELLS/uL
  ABSOLUTE MONOCYTE: 105.67 CELLS/uL
  ABSOLUTE SEGMENTED NEUTROPHIL: 1111.67 CELLS/uL
  BASOPHIL: 0%
  EOSINOPHIL: 0%
  ERYTHROCYTE COUNT: 5.18 x10E6/uL
  HEMATOCRIT: 32.3%
  HEMOGLOBIN: 13.07 G/DL
  LEUKOCYTE COUNT: 9.43 x10E3/uL
  LYMPHOCYTE: 87.33%
  MEAN CORPUSCULAR HEMOGLOBIN: 25.23 pg
  MEAN CORPUSCULAR HEMOGLOBIN CONCENTRATION: 40.47 G/DL
  MEAN CORPUSCULAR VOLUME: 62.37 fL
  MONOCYTE: 1%
  NEUTROPHIL: 11.67%
  NUCLEATED RED BLOOD CELLS: 0 /100WBC
  PLATELET COUNT: 1232.67 x10E3/uL
  ALANINE AMINOTRANSFERASE: 78.33 u/L
  ALBUMIN: 4 G/DL
  ALKALINE PHOSPHATASE: 425 u/L
  ASPARTATE AMINOTRANSFERASE: 95.33 u/L
  BLOOD UREA NITROGEN: 17 mg/dL
  CARBON DIOXIDE: 30 mmol/L
  CHLORIDE: 101.33 MEQ/L
  CHOLESTEROL: 69 mg/dL
  CREATINE PHOSPHOKINASE: 495.67 u/L
  CREATININE: 0.2 mg/dL
  GLUCOSE: 186.33 mg/dL
  LACTATE DEHYDROGENASE: 214.33 u/L
  LIPASE: 8.67 u/L
  PHOSPHORUS: 12.6 mg/dL
  POTASSIUM: 6.25 MEQ/L
  SODIUM: 143.63 MEQ/L
  TOTAL BILIRUBIN: 0.17 mg/dL
  TOTAL PROTEIN: 5.5 G/DL
  URIC ACID: 1.43 mg/dL
[4]
  ABSOLUTE BASOPHIL: 0 CELLS/uL
  ABSOLUTE EOSINOPHIL: 43.33 CELLS/uL
  ABSOLUTE LYMPHOCYTE: 10902.67 CELLS/uL
  ABSOLUTE MONOCYTE: 142 CELLS/uL
  ABSOLUTE SEGMENTED NEUTROPHIL: 678.67 CELLS/uL
  BASOPHIL: 0%
  EOSINOPHIL: 0.33%
  ERYTHROCYTE COUNT: 5.61 x10E6/uL
  HEMATOCRIT: 35.07%
  HEMOGLOBIN: 14.17 G/DL
  LEUKOCYTE COUNT: 11.77 x10E3/uL
  LYMPHOCYTE: 93%
  MEAN CORPUSCULAR HEMOGLOBIN: 25.23 pg
  MEAN CORPUSCULAR HEMOGLOBIN CONCENTRATION: 40.4 G/DL
  MEAN CORPUSCULAR VOLUME: 62.43 fL
  MONOCYTE: 1.33%
  NEUTROPHIL: 5.33%
  NUCLEATED RED BLOOD CELLS: 0 /100WBC
  PLATELET COUNT: 984.33 x10E3/uL
  ALANINE AMINOTRANSFERASE: 57 u/L
  ALBUMIN: 4.3 G/DL
  ALKALINE PHOSPHATASE: 291 u/L
  ASPARTATE AMINOTRANSFERASE: 85.33 u/L
  BLOOD UREA NITROGEN: 18 mg/dL
  CARBON DIOXIDE: 26.67 mmol/L
  CHLORIDE: 103.67 MEQ/L
  CHOLESTEROL: 68.67 mg/dL
  CREATINE PHOSPHOKINASE: 238 u/L
  CREATININE: 0.23 mg/dL
  GLUCOSE: 187.33 mg/dL
  LACTATE DEHYDROGENASE: 153.33 u/L
  LIPASE: 11 u/L
  PHOSPHORUS: 11.87 mg/dL
  POTASSIUM: 5.74 MEQ/L
  SODIUM: 144.4 MEQ/L
  TOTAL BILIRUBIN: 0.2 mg/dL
  TOTAL PROTEIN: 5.83 G/DL
  URIC ACID: 1.6 mg/dL
